Measured values reported in patent publication US10877036B2, “Biosensor based on Gβγ-interacting proteins to monitor G-protein activation” (priority 2014, dated 2020).
Where two headings read alike, the source gives them in different places.

Key:
Assay type in all cases: cell-based
[1] = biological target: T1, TPαR (Homo sapiens, UniProt P21731); experiment: Polycistronic vector biosensor (GRK2-GFP, Rluc-Gγ5, Gβ1) co-transfected with TPαR and Gα11; conditions: FIG. 11C
T1 construct: host or cells: HEK293
T1 sequence (P21731 1-343): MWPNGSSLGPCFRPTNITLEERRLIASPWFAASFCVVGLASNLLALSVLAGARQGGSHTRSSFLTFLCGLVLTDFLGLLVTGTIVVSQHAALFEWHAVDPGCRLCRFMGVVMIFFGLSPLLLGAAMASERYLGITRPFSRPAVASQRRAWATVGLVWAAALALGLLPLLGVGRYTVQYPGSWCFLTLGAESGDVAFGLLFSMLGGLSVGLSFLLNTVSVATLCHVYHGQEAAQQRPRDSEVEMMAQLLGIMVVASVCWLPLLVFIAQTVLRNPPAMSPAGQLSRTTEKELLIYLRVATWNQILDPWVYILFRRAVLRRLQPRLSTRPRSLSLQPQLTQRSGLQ
Excerpt: Expression vectors: Biosensor constructs. Rluc-Gγ5 and GFP-Gγ: Plasmid encoding the fusion proteins Rluc-Gy1 to Gγ13 and GFP1O-Gγ5 were was obtained by PCR amplification of the Gγ coding sequences which were then fused in frame at its N-terminus to the humanized Renilla luciferase II (hRlucII) sequence (a variant of the hRluc previously reported (Leduc, Breton et al. 2009), SEQ ID NO:39) into pcDNA3.1 vector (linker sequence: GSAGT, SEQ ID NO: 33), or to the GFP10 (a variant form of the green fluorescent protein (GFP) previously reported (Mercier, Salahpour et al. 2002, SEQ ID NO:38). GRK2-GFP and GRK3-GFP: GRK2-GFP, GRK3-GFP, GRK2 Cterm (SEQ ID NO:50)-GFP, GRK3 Cterm (SEQ ID NO:51)-GFP were generated by PCR amplification of GRK2 and GRK3, which were then fused at their C-terminus to the GFP10 into pcDNA3.1 Zeo(+) vector, generating a linker of 11 amino acid residues between the GRK and the GFP10 protein (linker sequence: GSAGTGKLPAT, SEQ ID NO: 34). GFP-GRK2 and GFP-GRK3: […], GFP-GRK2 Cterm (SEQ ID NO:50), GFP-GRK3 Cterm (SEQ ID NO:51) were generated by PCR amplification of GRK2 and GRK3, which were then fused at their N-terminus to the GFP10 (SEQ ID NO:38) into pcDNA3.1 Zeo (+) vector, generating a linker of 7 amino acid residues between the GRK and the GFP10 protein (linker sequence: GSAGTGG, SEQ ID NO:52). […]

[2] = biological target: T2, thromboxane A2 receptor (TPαR) (Homo sapiens, UniProt P21731); experiment: βγIP-based BRET biosensor (GRK2-GFP/Rluc-Gγ5/Gβ1 plus indicated Gα), agonist activation of TPαR in HEK293 cells; conditions: read-out: potency of G-protein activation (dose-response curve)
T2 construct: host or cells: HEK293
T2 sequence (P21731 1-343): T1 sequence (P21731 1-343)
Experimental: Cell culture and transfections. Human embryonic kidney 293 (HEK293) cells were maintained in Dulbecco's Modified Eagle's Medium (DMEM) supplemented with 10% fetal bovine serum, 100 unit/ml penicillin/streptomycin at 37° C. in a humidified atmosphere with 5% CO2. […]
BRET assays in living cells. […] BRET values were then collected using a Mithras™ LB940 Multimode Microplate Reader or a TRISTAR® LB942 Multimode Microplate Reader, equipped with the following filters: 400 nm±70 nm (energy donor) and 515 nm±20 nm (energy acceptor). BRET values were determined by calculating the ratio of the light emitted by GFP (515 nm) over the light emitted by the Rluc (400 nm). To determine the % of activation (Stim as % of basal), BRET values obtained for the agonist treated cells where expressed as a percentage of the BRET values obtained with the corresponding cells treated with vehicle.
Kinetics experiments. BRET assays were performed as described previously, except that BRET readings were collected at regular intervals, 5 min after coelenterazine addition, while ligands and vehicle were injected to the cells after 30 sec of BRET measurements.

[3] = biological target: T1, TPαR; experiment: Rluc protein complementation assay (GRK2-Rluc F1/Rluc F2-Gγ5/Gβ1/Gα11), TPαR in HEK293 cells; conditions: Rluc-PCA, FIG. 9B, read-out: EC50 of G11 protein activation (luminescence)
Experimental: Cell culture and transfections. Human embryonic kidney 293 (HEK293) cells were maintained in Dulbecco's Modified Eagle's Medium (DMEM) supplemented with 10% fetal bovine serum, 100 unit/ml penicillin/streptomycin at 37° C. in a humidified atmosphere with 5% CO2. Two days before the experiments, HEK293 cells were transfected with the indicated plasmids using poly-ethylenimine 25-kDa linear (PEI) as a transfecting agent (at a ratio of 3 to 1, PEI/DNA) (Hamdan, Rochdi et al. 2007), and then directly seeded in 96-well plates pre-treated with poly-L-ornithine hydrobromide or Poly-D-Lysine, at a density of 35,000 cells per well (for BRET and PCA assays in living cells), or 6-well plates at a density of 1,000,000 cells per well (for BRET assays on membrane preparations).
Protein complementation assays using RlucII fragments. Cells were washed twice with PBS, followed by Tyrode buffer addition. The cells were then pre-treated with the Rluc substrate, coelenterazine 400a, at a final concentration of 2.5 μM for 30 min at 37° C. The different ligands or vehicle were added for an additional 10 min. Luminescence values were then collected using a Mithras™ LB940 Multimode Microplate Reader, without any filters.

CCCCC[C@H](O)/C=C/[C@@H]1[C@@H](C/C=C\CCCC(=O)O)[C@H]2CO[C@@H]1C2 [U-46619]
EC50 [1]: 4.3 nM | EC50 ([2]; G-protein printed as Gβ, FIG. 3C): 0.5 nM | EC50 ([2]; Gα15/16, FIG. 3C): 6.6 nM | EC50 [3]: 8.4 nM
